The values below come from patent US20240390529A1, “DUAL-MODE PROBE FOR DETECTING HYDROGEN SULFIDE AND USE THEREOF” (KYUNGPOOK NATIONAL UNIVERSITY INDUSTRY-ACADEMIC COOPERATION …, priority 2022, published 2024).

Bounds are passed on as bounds.

The subject of data set [1] is H2S concentration in brain tissues. The data set can be described thus: Quantification of H2S in brain by methylene blue method. The format is in vivo, mice. The method, then:
The methylene blue method was used to directly measure H2S concentration in brain tissues. Briefly, PET imaging was performed, brains were harvested, weighed, and homogenized in liquid N2. An ice-cold PBS solution in a volume equivalent to the weight of the homogenate (w/v, approximately 260 to 300 mg) was added, followed by vortex for 3 min and centrifugation (14,000 rpm, 5 min, 4° C.). Then, 100 μL of the supernatant was incubated together with 100 μL of 1% zinc acetate dihydrate at 37° C. for 10 minutes to immobilize H2S. 100 μL of 0.1 M sodium tetraborate buffer (pH 9) and 200 μL of 20 mM N, N-dimethyl-p-phenylenediamine sulfate were added to 7.2 M HCl, and 200 μL of 30 mM iron (III) chloride was added to 1.2 M HCl, and the mixture was incubated at 37° C. for 15 min to form methylene blue dyes. The mixture was centrifuged again (14,000 rpm, 5 minutes, 4° C.). 100 μL of supernatant was transferred in triplicate to 96-well plates, and absorbance was recorded spectrophotometrically at 670 nm. The H2S concentration was calculated by using a standard curve obtained by plotting absorbance (A670) versus NaHS concentration (0 to 30 μM). For quantification of H2S in the left and right hemispheres of the brains, PET imaging was performed, and only the cerebral hemispheres were harvested and processed separately. […]

The test system of data set [2] is Human cervical cancer cells (HeLa). The data set can be described thus: MTT cytotoxicity analysis, HeLa. The format is cell-based. The method, then:
(§1) The cytotoxicity of Cu-ATSM-FITC(5) was evaluated through 3-(4,5-dimethyl-2-thiazolyl)-2,5-diphenyltetrazolium bromide (MTT; sigma-aldrich) analysis. Human cervical cancer cells (HeLa), human hepatoma cells (HepG2), and human embryonic kidney cells (HEK293) were prepared in 96-well plates at a density of 10,000 cells per well. As compared to the control group treated with PBS alone, they were treated with Cu-ATSM-FITC (5) at increasing concentrations of 1, 10, and 25 μM. Afterwards, they were incubated for 1, 4, and 24 hours (37° C., 5% CO2), respectively. For each treatment time, each well was added with 10 μL of MTT (5 mg/mL in PBS) solution and incubated for 3 hours. The supernatant was carefully aspirated, and the purple insoluble formazan crystals in the wells were dissolved using DMSO for 30 minutes. Absorbance was measured at 550 nm using a spectrophotometer (SPECTROstar Nano, BMG Labtech, Ortenberg, Germany). CuS was also performed four times in a similar manner by using HeLa, HEK293, HepG2, and human brain glioblastoma (U87MG) cells.

For data set [3], the system named is human hepatoma cells (HepG2). The experiment in a line: MTT cytotoxicity analysis, HepG2. It is filed as cell-based. The method, then: as §1
Data set [4] concerns human embryonic kidney cells (HEK293). The experiment in a line: MTT cytotoxicity analysis, HEK293. It is filed as cell-based. The procedure:
as §1

In data set [5] the test system is human brain glioblastoma (U87MG) cells. The experiment in a line: MTT cytotoxicity analysis, U87MG. The format is cell-based. The procedure: as §1
Data set [6] can be described thus: Optical properties (UV-Vis absorbance, fluorescence emission). It is filed as physicochemical. The method, then: The optical properties of the free ligand ATSM-FITC (4) were evaluated. […] When H2S sequestered Cu(II) ions from the copper complex (5) and precipitated CuS, the ATSM-FITC ligand was released and fluorescence was emitted (FIG. 7).
Data set [7] can be described thus: Fluorescence response of probe to NaHS (sensitivity, reaction rate, detection limit). The procedure:
To confirm the sensitivity, Cu-ATSM-FITC(5) was incubated with a wide range of NaHS concentrations (0-100 μM) at 37° C. and the fluorescence intensity was measured (FIG. 6B). […] When reacted with 50 μM NaHS solution, the fluorescence intensity of Cu-ATSM-FITC(5) reached a plateau within 30 seconds (FIG. 6C). In contrast, the reactivity of Cu-ATSM-FITC(5) toward L-cysteine (1 mM) and glutathione (GSH) (10 mM) was minimal, as compared to H2S, even though their concentrations were at least 20 times higher than H2S. The detection limit of Cu-ATSM-FITC(5) was calculated to be 0.20 μM using the regression equation (FIG. 8). The quantum yield was confirmed to be 0.33 according to the equation, as compared to the fluorescein standard value (FIG. 9).

Data set [8] can be described thus: Selectivity toward competing biological species with and without H2S. The text has this: The selectivity of Cu-ATSM-FITC(5) was investigated against a variety of potentially competing biological species in the presence and absence of H2S (FIG. 6D).
Data set [9] in a line: Fluorescence stability and reactivity at various pH. The format is physicochemical. The settings on record: pH 5 to 10.
A short description of data set [10]: Measurement of quantum yield versus fluorescein standard. The format is physicochemical. The following applies: compared to the fluorescein standard value. The procedure:
The background levels of methanol used in the experiment were measured by using a SpectraMaxi-3 spectraphotometer, and Cu-ATSM-FITC(5) was measured at concentrations of 0.02, 0.04, 0.06, 0.08, and 0.1 μM. A fluorescein standard line graph was obtained according to the concentration and intensity of Cu-ATSM-FITC(5). The quantum yield was calculated according to the following equation: Φ=ΦST (Grad x/Grad ST) (η×2/ηST 2). Here, the subscripts ST and X represent the measured values of the standard and test solutions, respectively. In addition, Φ represents the quantum yield and η represents the refractive index of the solution.

For the next data set, the system named is H2S in HeLa cells. The data set can be described thus: Fluorescence imaging of exogenous and endogenous H2S in live HeLa cells. It is filed as cell-based, human. The text has this: Next, we investigated the usefulness of Cu-ATSM-FITC(5) for monitoring H2S levels in living cells (FIG. 14).
Another data set relates to mouse brain tissues. The settings on record: up to 7 days after injection of high-dose 500 μg; CuS precipitated.
Data set [11] is described as follows: Biodistribution in normal BALB/c mice (γ-counter). The format is in vivo. The settings on record: 4 hours after administration. The method, then: BALB/c mice (male, 9 weeks old) were used to investigate the systemic distribution and clearance rate of ^64Cu-ATSM-FITC (6). ^64Cu-ATSM-FITC (6) with a radioactivity of 0.56 to 0.74 MBq in a saline solution (5% DMSO, 200 μL) was injected into mice through the tail vein under anesthesia. […] Blood was drawn, and organs comprising heart, lung, muscle, fat, bone, spleen, kidney, liver, intestine, and brain were harvested, weighed, and analyzed by using a γ-counter (Wallac Wizard 1480, PerkinElmer, France). Radioactivity was calculated as percentage of injected dose per gram (% ID/g).
The distribution of ^64Cu-ATSM-aniline in the body was confirmed by using the same method as described in Experimental Methods 5 and 7 above.

Description for mouse brain tissues: Animals were anesthetized by using isoflurane, and injected with 100 μg of Cu-ATSM-FITC(5) in 100 μL of 10% DMSO/PBS, and 500 μg of Cu-ATSM-FITC(5) in 100 μL of 40% DMSO/PBS, respectively, through tail vein injection. The animals were perfused transcardially with saline 1, 3, and 7 days after the injection. The brains were dissected, fixed in 4% paraformaldehyde, and embedded in paraffin to make blocks. Serial coronal sections in paraffin with the thickness of 7 μm were obtained. The sections were stained with H&E by using a staining kit (BBC ClearView, BBC Eosin Y Alcoholic). The stained brain tissues were photographed under a Carl Ziess microscope at 400× magnification.

Consider `Cl.NOCC(=O)O.NOCC(=O)O` [AOAA], for which the “reduction of H2S concentration in the brain compared to controls” value in data set [1] (10 mg/kg intraperitoneal, mice) worked out at 32%. The “H2S concentration in the brain” value in data set [1] (AOAA-treated mice) amounted to 2.1±0.5 μg/g brain.

For the molecule `[S]=[Cu]` [CuS, copper sulfide], the cytotoxicity entry in data set [2] (HeLa), in data set [3], in [4] and in data set [5] was “no cytotoxicity was found” throughout.

Take `CNC(=S)N/N=C(C)/C(C)=N/NC(=S)Nc1ccc(-c2c3ccc(=O)cc-3oc3cc(O)ccc23)c(C(=O)O)c1` [ATSM-FITC (4), 2-(6-hydroxy-3-oxo-3H-xanthen-9-yl)-5-((E)-2-((E)-3-(2-(methylcarbamothioyl)hydrazono)butan-2-ylidene)hydrazinecarbothioamido)benzoic Acid]: the absorbance band in data set [6] (UV-Vis spectroscopy) came out at 494 nm. Also, in [6] (excitation at 480 nm), the maximum fluorescence emission came to 524 nm.

As to `CNC([S-])=NN=C(C)C(C)=NN=C([S-])Nc1ccc(-c2c3ccc(=O)cc-3oc3cc(O)ccc23)c(C(=O)O)c1.[Cu+2]` [Cu-ATSM-FITC(5), Copper(II) Complex of 2-(6-hydroxy-3-oxo-3H-xanthen-9-yl)-5-((E)-2-((E)-3-(2-(methylcarbamothioyl)hydrazono)butan-2-ylidene)hydrazinecarbothioamido)benzoic Acid], in data set [6] (without H2S), the “fluorescence signal of the complex” value is given as “did not show a detectable fluorescence signal”. In addition, the “time for fluorescence intensity to reach a plateau” value in [7] (50 μM NaHS solution) was at most 30 s. In data set [7] (100 μM NaHS compared to concentration 0, 37° C.), the “fluorescence enhancement at 524 nm” value was “up to 3500 fold”. Also, the “reactivity toward L-cysteine and glutathione (GSH) compared to H2S” value in data set [7] (L-cysteine 1 mM, GSH 10 mM) is listed as “minimal”. For the same molecule, the detection limit in data set [7] (calculated using the regression equation, H2S) is 0.20 µM. The “fluorescence intensity with competing species plus NaHS” value in [8] (NaHS 50 μM added with other biologically abundant species) is “full fluorescence intensity was observed without interference”. Besides, the “reactivity (fluorescence signals) with other species” value in data set [8] (biothiols, inorganic sulfur species, reducing agents, nucleophiles, ROS/RNS, absence of H2S) is recorded as “did not show reactivity”. In addition, the “stability and reactivity over physiological pH range” value in data set [9] was “high stability and reactivity”. The molecule further returned a quantum yield in [10] of 0.33. In addition, in data set [2] (1, 10, and 25 μM, 24 hours of incubation), the “survival rate of HeLa cells” value is given as “exceeded 85%”. Moreover, the cytotoxicity result in data set [3] and in [4] was “No cytotoxicity was observed” in each case. The “detection of endogenous H2S induced by L-cysteine” value in the data set with H2S in HeLa cells (L-cysteine 100 μM) is listed as “successfully detected the increase in endogenous H2S concentration”. For the same molecule, the “green fluorescence intensity in HeLa cells on addition of NaHS” value with H2S in HeLa cells (NaHS 50 and 100 μM) was “linear rise in green fluorescence intensity”. The “fluorescence signal in HeLa cells” value in the data set with H2S in HeLa cells (probe 25 μM, no added H2S) is recorded as “faint fluorescence signal”. The “toxicity in mouse brain tissues (H&E staining)” value with mouse brain tissues was “low toxicity”.

Take `C#CCC(N)C(=O)O` (racemic) [DL-propargylglycine, reference compound]: in the data set on H2S in HeLa cells (450 μM, HeLa cells probed with Cu-ATSM-FITC(5)), the “green fluorescence due to endogenous H2S after CSE blockade” value is given as “completely reduced”.

Take `CNC([S-])=NN=C(C)C(C)=NN=C([S-])Nc1ccc(N(C)C)cc1.[64Cu+2]` [^64Cu-ATSM-aniline, reference compound]: in [11], the “distribution in the brain” value is given as “very low”; the “organs of widest distribution” value was “lungs and liver”.
